Test results published in BigSolDB 2.1.

COC(=O)Nc1nc2ccc(Sc3ccccc3)cc2[nH]1
solubility (mole fraction)
Conditions | 283.15 K | 288.15 K | 293.15 K | 298.15 K | 303.15 K | 308.15 K | 313.15 K | 318.15 K | 323.15 K | 328.15 K
in DMF | 0.0397 | 0.0559 | 0.0731 | 0.0997 | 0.134 | 0.175 | 0.227 | 0.291 | 0.374 | 0.47
in ethanol | 0.000165 | 0.000219 | 0.000291 | 0.000378 | 0.000478 | 0.000598 | 0.000734 | 0.000918 | 0.00112 | 0.00137
in ethylene glycol | 0.000127 | 0.000171 | 0.000232 | 0.000305 | 0.0004 | 0.000513 | 0.000648 | 0.000812 | 0.00101 | 0.00126
in water | 3.69e-06 | 4.51e-06 | 5.71e-06 | 7.25e-06 | 9.03e-06 | 1.12e-05 | 1.38e-05 | 1.7e-05 | 2.07e-05 | 2.51e-05
